According to US20180246095A1, “COMPOSITIONS AND METHODS FOR DIAGNOSING AND TREATING LYME DISEASE” (priority 2015, published 2018):

System: B. burgdorferi B31
Assay: RNA-Seq gene expression profile of B. burgdorferi persisters that survived antibiotic treatment, compared with drug free control
Assay type: cell-based, Borrelia burgdorferi
Conditions: vs drug free control
Experimental: RNA Sequencing (RNA-Seq) was performed to determine the gene expression profile of B. burgdorferi persisters that survived antibiotic treatment using next generation sequencing to shed light on the mechanisms of B. burgdorferi persistence. B. burgdorferi B31 cultures were grown for 5 days to 1×10^7 spirochetes/ml in BSK-H medium followed by treatment with 50 μg/ml doxycycline or 50 μg/ml amoxicillin for 6 days. Triplicate biological samples were used for each group. The total RNA was extracted and ribosomal RNA was removed prior to preparation of cDNA libraries for Illumina sequencing. […] The RNA-Seq data was analyzed by BLAST analysis and mapped to KEGG pathways.

[1] = 50 μg/ml antibiotic for 6 days, more than two-fold change

With `C[C@H]1c2cccc(O)c2C(=O)C2=C(O)[C@]3(O)C(=O)C(C(N)=O)=C(O)[C@@H](N(C)C)[C@@H]3[C@@H](O)[C@@H]21` [doxycycline, reference compound] the “genes down-regulated in treated group” value (50 μg/ml antibiotic for 6 days) was 340 genes, the “genes upregulated in treated group” value (50 μg/ml antibiotic for 6 days) was 335 genes and the “total genes differentially expressed between tolerant persisters and drug free group” value (50 μg/ml antibiotic for 6 days) was 675 genes. The “down-regulated genes identified by more than two-fold change” value [1] was 33 genes, the “up-regulated genes identified by more than two-fold change” value [1] was 35 genes and the “clpP (BB_0757) expression, upregulated fold change in persisters” value (B31 culture treated with 50 μg/ml antibiotic for 6 days) was 30 fold.
